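Grown in 96-well plates, cells were treated for 48 hours with each compound at five concentrations. Insufficient inhibition: endpoint recorded as highest concentration tested. The concentration for full growth arrest is given as TGI.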
What was measured:
Assay in all cases: NCI anticancer screen, dose series, 48 h
ACHN renal = test system: ACHN renal
SK-OV-3 ovarian = test system: SK-OV-3 ovarian
PC-3 prostate = test system: PC-3 prostate
SF-268 CNS = test system: SF-268 CNS
MDA-MB-231 breast = test system: MDA-MB-231 breast
SNB-19 CNS = test system: SNB-19 CNS
M14 melanoma = test system: M14 melanoma
K-562 leukemia = test system: K-562 leukemia
HT29 colon = test system: HT29 colon
A549 NSCLC = test system: A549 NSCLC
RPMI-8226 leukemia = test system: RPMI-8226 leukemia
MCF7 breast = test system: MCF7 breast
SR leukemia = test system: SR leukemia
RXF 393 renal = test system: RXF 393 renal
CCRF-CEM leukemia = test system: CCRF-CEM leukemia
EKVX NSCLC = test system: EKVX NSCLC
786-0 renal = test system: 786-0 renal
T-47D breast = test system: T-47D breast
OVCAR-3 ovarian = test system: OVCAR-3 ovarian
SF-295 CNS = test system: SF-295 CNS
MALME-3M melanoma = test system: MALME-3M melanoma
SW-620 colon = test system: SW-620 colon
HCT-116 colon = test system: HCT-116 colon
OVCAR-4 ovarian = test system: OVCAR-4 ovarian
SK-MEL-5 melanoma = test system: SK-MEL-5 melanoma
NCI-H460 lung = test system: NCI-H460 lung
HOP-92 NSCLC = test system: HOP-92 NSCLC
SK-MEL-28 melanoma = test system: SK-MEL-28 melanoma
HCC-2998 colon = test system: HCC-2998 colon
SN12C renal = test system: SN12C renal
NCI-H522 lung = test system: NCI-H522 lung
MDA-MB-435 = test system: MDA-MB-435
CAKI-1 renal = test system: CAKI-1 renal
HOP-62 NSCLC = test system: HOP-62 NSCLC
SF-539 CNS = test system: SF-539 CNS
HCT-15 colon = test system: HCT-15 colon
NCI/ADR-RES ovarian = test system: NCI/ADR-RES ovarian
OVCAR-8 ovarian = test system: OVCAR-8 ovarian
TK-10 renal = test system: TK-10 renal
UACC-257 melanoma = test system: UACC-257 melanoma
IGROV1 ovarian = test system: IGROV1 ovarian
MOLT-4 leukemia = test system: MOLT-4 leukemia
U251 CNS = test system: U251 CNS
UO-31 renal = test system: UO-31 renal
NCI-H226 lung = test system: NCI-H226 lung
HS 578T breast = test system: HS 578T breast
BT-549 breast = test system: BT-549 breast
NCI-H23 lung = test system: NCI-H23 lung
MDA-N = test system: MDA-N
OVCAR-5 ovarian = test system: OVCAR-5 ovarian
LOX IMVI melanoma = test system: LOX IMVI melanoma
UACC-62 melanoma = test system: UACC-62 melanoma
SK-MEL-2 melanoma = test system: SK-MEL-2 melanoma
SNB-75 CNS = test system: SNB-75 CNS
A498 renal = test system: A498 renal
KM12 colon = test system: KM12 colon
DU-145 prostate = test system: DU-145 prostate
COLO 205 colon = test system: COLO 205 colon
HL-60(TB) leukemia = test system: HL-60(TB) leukemia

SMILES: NC(=O)NNc1nc2ccccc2c(=O)n1NC(=O)C(=O)Nc1ccc(Cl)cc1Cl
- TGI (ACHN renal): > 100 µM
- TGI (SK-OV-3 ovarian): > 100 µM
- TGI (PC-3 prostate): > 100 µM
- TGI (SF-268 CNS): > 100 µM
- TGI (MDA-MB-231 breast): > 100 µM
- TGI (SNB-19 CNS): > 100 µM
- TGI (M14 melanoma): > 100 µM
- TGI (K-562 leukemia): > 100 µM
- TGI (HT29 colon): > 100 µM
- TGI (A549 NSCLC): > 100 µM
- TGI (RPMI-8226 leukemia): > 100 µM
- TGI (MCF7 breast): > 100 µM
- TGI (SR leukemia): > 100 µM
- TGI (RXF 393 renal): > 100 µM
- TGI (CCRF-CEM leukemia): > 100 µM
- TGI (EKVX NSCLC): > 100 µM
- TGI (786-0 renal): > 100 µM
- TGI (T-47D breast): > 100 µM
- TGI (OVCAR-3 ovarian): > 100 µM
- TGI (SF-295 CNS): > 100 µM
- TGI (MALME-3M melanoma): > 100 µM
- TGI (SW-620 colon): > 100 µM
- TGI (HCT-116 colon): > 100 µM
- TGI (OVCAR-4 ovarian): > 100 µM
- TGI (SK-MEL-5 melanoma): > 100 µM
- TGI (NCI-H460 lung): > 100 µM
- TGI (HOP-92 NSCLC): > 100 µM
- TGI (SK-MEL-28 melanoma): > 100 µM
- TGI (HCC-2998 colon): > 100 µM
- TGI (SN12C renal): > 100 µM
- TGI (NCI-H522 lung): > 100 µM
- TGI (MDA-MB-435): > 100 µM
- TGI (CAKI-1 renal): > 100 µM
- TGI (HOP-62 NSCLC): > 100 µM
- TGI (SF-539 CNS): > 100 µM
- TGI (HCT-15 colon): > 100 µM
- TGI (NCI/ADR-RES ovarian): > 100 µM
- TGI (OVCAR-8 ovarian): > 100 µM
- TGI (TK-10 renal): > 100 µM
- TGI (UACC-257 melanoma): > 100 µM
- TGI (IGROV1 ovarian): > 100 µM
- TGI (MOLT-4 leukemia): > 100 µM
- TGI (U251 CNS): > 100 µM
- TGI (UO-31 renal): > 100 µM
- TGI (NCI-H226 lung): > 100 µM
- TGI (HS 578T breast): > 100 µM
- TGI (BT-549 breast): > 100 µM
- TGI (NCI-H23 lung): > 100 µM
- TGI (MDA-N): > 100 µM
- TGI (OVCAR-5 ovarian): > 100 µM
- TGI (LOX IMVI melanoma): > 100 µM
- TGI (UACC-62 melanoma): > 100 µM
- TGI (SK-MEL-2 melanoma): > 100 µM
- TGI (SNB-75 CNS): > 100 µM
- TGI (A498 renal): > 100 µM
- TGI (KM12 colon): > 100 µM

SMILES: [N-]=[N+]=Nc1c(C=O)c(=O)n2c3c(cccc13)CCC2
- TGI (ACHN renal): 11.5 µM
- TGI (SK-OV-3 ovarian): 33.9 µM
- TGI (PC-3 prostate): 27.2 µM
- TGI (SF-268 CNS): 35.4 µM
- TGI (MDA-MB-231 breast): 32.1 µM
- TGI (SNB-19 CNS): 42.1 µM
- TGI (M14 melanoma): 3.9 µM
- TGI (K-562 leukemia): 13 µM
- TGI (HT29 colon): > 70.2 µM
- TGI (A549 NSCLC): 40.9 µM
- TGI (RPMI-8226 leukemia): > 22.3 µM
- TGI (MCF7 breast): 10.6 µM
- TGI (RXF 393 renal): 3.76 µM
- TGI (CCRF-CEM leukemia): 6.44 µM
- TGI (EKVX NSCLC): 50.5 µM
- TGI (786-0 renal): 8.83 µM
- TGI (T-47D breast): 15.5 µM
- TGI (OVCAR-3 ovarian): 6.27 µM
- TGI (SF-295 CNS): > 76.6 µM
- TGI (MALME-3M melanoma): 4.26 µM
- TGI (SW-620 colon): 2.87 µM
- TGI (HCT-116 colon): 10.9 µM
- TGI (OVCAR-4 ovarian): 8.49 µM
- TGI (SK-MEL-5 melanoma): 27.5 µM
- TGI (NCI-H460 lung): 47.2 µM
- TGI (HOP-92 NSCLC): 4.5 µM
- TGI (SK-MEL-28 melanoma): 27.2 µM
- TGI (HCC-2998 colon): 33.6 µM
- TGI (SN12C renal): 37.5 µM
- TGI (MDA-MB-435): 20.1 µM
- TGI (DU-145 prostate): 21 µM
- TGI (CAKI-1 renal): 16.2 µM
- TGI (HOP-62 NSCLC): 35.2 µM
- TGI (SF-539 CNS): 36.1 µM
- TGI (HCT-15 colon): 11.5 µM
- TGI (COLO 205 colon): 4.63 µM
- TGI (NCI/ADR-RES ovarian): > 45.6 µM
- TGI (OVCAR-8 ovarian): 17.8 µM
- TGI (TK-10 renal): 10.1 µM
- TGI (UACC-257 melanoma): 10 µM
- TGI (IGROV1 ovarian): 25 µM
- TGI (MOLT-4 leukemia): 4.26 µM
- TGI (U251 CNS): 19.5 µM
- TGI (UO-31 renal): 6.39 µM
- TGI (NCI-H226 lung): 43.7 µM
- TGI (HS 578T breast): 57.3 µM
- TGI (BT-549 breast): 6.07 µM
- TGI (NCI-H23 lung): 12.2 µM
- TGI (HL-60(TB) leukemia): > 100 µM
- TGI (MDA-N): 15.3 µM
- TGI (OVCAR-5 ovarian): 21 µM
- TGI (LOX IMVI melanoma): 25.4 µM
- TGI (UACC-62 melanoma): 26.5 µM
- TGI (SNB-75 CNS): 29.1 µM
- TGI (A498 renal): 28.8 µM
- TGI (KM12 colon): 34.6 µM

From PubChem BioAssay (NCI)
